Results as given in US9120820B2, “Fluorescent molecular probes for use in assays that measure test compound competitive binding with SAM-utilizing proteins” (CAYMAN CHEMICAL COMPANY, INCORPORATED, priority 2011, dated 2015).

What was measured:
Assay type in all cases: biochemical
[1] = target: T1, GLP (Homo sapiens, UniProt Q9H9B1); test: Radiometric methyltransferase assay, GLP; settings: GLP 10 nM; compound 10 μM, 1 μM, or 0.1 μM; FIG. 13
T1 sequence (Q9H9B1 1-1298): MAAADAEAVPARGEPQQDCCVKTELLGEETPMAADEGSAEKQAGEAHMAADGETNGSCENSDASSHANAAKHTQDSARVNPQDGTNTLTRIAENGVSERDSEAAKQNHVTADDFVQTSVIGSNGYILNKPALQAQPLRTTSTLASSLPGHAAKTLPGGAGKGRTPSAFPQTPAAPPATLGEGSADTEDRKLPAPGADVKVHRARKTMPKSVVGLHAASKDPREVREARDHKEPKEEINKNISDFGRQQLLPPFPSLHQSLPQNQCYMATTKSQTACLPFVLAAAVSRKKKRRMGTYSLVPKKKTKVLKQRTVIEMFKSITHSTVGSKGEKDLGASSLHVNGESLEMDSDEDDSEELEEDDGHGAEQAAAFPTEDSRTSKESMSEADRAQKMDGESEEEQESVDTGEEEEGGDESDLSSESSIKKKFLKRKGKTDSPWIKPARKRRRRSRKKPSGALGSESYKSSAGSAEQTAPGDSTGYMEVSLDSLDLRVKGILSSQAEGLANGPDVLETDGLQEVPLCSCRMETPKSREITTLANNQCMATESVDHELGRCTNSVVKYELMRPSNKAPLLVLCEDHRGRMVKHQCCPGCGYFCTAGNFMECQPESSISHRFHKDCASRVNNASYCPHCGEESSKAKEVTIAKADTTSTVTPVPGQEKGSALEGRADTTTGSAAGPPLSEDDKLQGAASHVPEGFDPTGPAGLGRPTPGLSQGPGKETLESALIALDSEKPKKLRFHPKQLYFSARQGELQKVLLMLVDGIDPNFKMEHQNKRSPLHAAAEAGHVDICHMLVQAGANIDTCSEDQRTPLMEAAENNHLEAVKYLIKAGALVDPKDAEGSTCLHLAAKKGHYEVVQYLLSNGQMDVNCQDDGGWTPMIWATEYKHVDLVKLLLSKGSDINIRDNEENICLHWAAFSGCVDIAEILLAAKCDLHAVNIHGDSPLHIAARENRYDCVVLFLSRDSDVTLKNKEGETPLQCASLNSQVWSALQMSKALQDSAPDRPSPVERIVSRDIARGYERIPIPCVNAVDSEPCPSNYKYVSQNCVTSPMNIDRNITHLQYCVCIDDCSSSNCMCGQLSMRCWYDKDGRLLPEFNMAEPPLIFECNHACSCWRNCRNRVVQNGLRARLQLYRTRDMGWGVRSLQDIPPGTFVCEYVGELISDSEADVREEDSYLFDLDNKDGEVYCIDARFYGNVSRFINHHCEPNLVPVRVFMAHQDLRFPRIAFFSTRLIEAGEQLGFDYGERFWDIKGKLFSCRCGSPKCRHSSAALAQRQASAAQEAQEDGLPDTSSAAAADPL
Protocol: (§1) Reagents: Compound 16A was prepared by the method described in Example 4 and illustrated in FIG. 5. The Compounds 20A-iv and 20A-iii were prepared according to methods described in Example 6 and illustrated in FIG. 7. Enzymes were obtained from the Cayman Catalog with the exception of PRMT4 and PRMT6, which were produced in baculovirus and purified to near homogeneity using Ni-affinity chromatography. Human core histones were purified from HeLa nuclear pellet per the method of Coté et al. S-adenosylmethionine (SAM) was obtained from Sigma-Aldrich (Cat #A7007) and S-[methyl-3H]-SAM was obtained from Perkin-Elmer ([…]). Methods: […] To this was added enzyme diluted to provide a final assay concentration (GLP: 10 nM; PRMT1: 100 nM; SET7/9: 120 nM; PRDM9: 120 nM; PRMT4: 150 nM; PRMT6: 120 nM; G9a: 200 nM) and the compound was allowed to preincubate for 10 minutes at room temperature. […] Samples were mixed immediately after quenching and transferred to a 96-well GFC Uni-Filter microtiter filter plate (Perkin Elmer, Cat#6005174) that contained 50 μl of 20% TCA. Samples were allowed to precipitate for at least 5 minutes at room temperature. The samples were filtered onto the GFC membrane and washed four times with 100 μl of 10% TCA and once with 100 μl of 95% EtOH. To each well was added 25 μl of MicroScint-20 (Perkin-Elmer Cat#6013621) and samples were analyzed using a TopCount NXT microplate scintillation counter. The experiment was performed one time in duplicate for all compound concentrations tested and in triplicate for the vehicle and no enzyme controls. All data was analyzed in GraphPad Prism (v. 5.04).

[2] = target: T2, SET7/9 (Homo sapiens, UniProt Q8WTS6); test: Radiometric methyltransferase assay, SET7/9; settings: SET7/9 120 nM; compound 10 μM, 1 μM, or 0.1 μM; FIG. 13
T2 construct: purchased Cayman 10320
T2 sequence (Q8WTS6 1-366): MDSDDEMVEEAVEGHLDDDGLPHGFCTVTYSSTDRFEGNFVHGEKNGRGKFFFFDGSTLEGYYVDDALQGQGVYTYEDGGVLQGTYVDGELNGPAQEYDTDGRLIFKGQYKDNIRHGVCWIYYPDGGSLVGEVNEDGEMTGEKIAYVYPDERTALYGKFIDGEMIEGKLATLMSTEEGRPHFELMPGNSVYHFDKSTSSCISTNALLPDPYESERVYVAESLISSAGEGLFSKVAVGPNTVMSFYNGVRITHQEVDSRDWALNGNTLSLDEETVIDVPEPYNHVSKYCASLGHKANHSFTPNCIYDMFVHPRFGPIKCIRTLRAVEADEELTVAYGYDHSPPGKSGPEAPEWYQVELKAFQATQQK
Protocol: as §1

[3] = target: T3, PRMT6 (Homo sapiens, UniProt Q96LA8); test: Radiometric methyltransferase assay, PRMT6; settings: PRMT6 120 nM; compound 10 μM, 1 μM, or 0.1 μM; FIG. 13
T3 construct: made in house; host or cells: baculovirus expression
Protocol: as §1

T3 sequence (Q96LA8 whole entry, species assumed): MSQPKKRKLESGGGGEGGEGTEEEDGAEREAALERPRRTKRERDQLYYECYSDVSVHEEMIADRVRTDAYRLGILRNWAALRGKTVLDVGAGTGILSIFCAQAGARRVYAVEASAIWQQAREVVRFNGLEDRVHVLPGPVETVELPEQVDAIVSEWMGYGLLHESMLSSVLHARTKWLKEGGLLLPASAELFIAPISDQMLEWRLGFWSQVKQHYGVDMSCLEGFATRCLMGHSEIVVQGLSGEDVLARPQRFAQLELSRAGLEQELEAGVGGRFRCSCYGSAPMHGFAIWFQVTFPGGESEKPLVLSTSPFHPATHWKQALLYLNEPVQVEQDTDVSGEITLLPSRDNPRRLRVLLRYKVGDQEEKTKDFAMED

Row | Structure (SMILES) | inhibition of enzymatic activity [1] | inhibition of enzymatic activity [2] | inhibition of enzymatic activity [3]
1 | CCNC(=O)[C@H]1O[C@@H](n2cnc3c(N)nc(Cl)nc32)[C@H](O)[C@@H]1O [Compound 20A-iii, 2-chloroadenosine-5′-N-ethylcarboxamide] | did not show appreciable inhibition | did not show appreciable inhibition | some modest inhibition
2 | CCNC[C@H]1O[C@@H](n2cnc3c(N)nc(Cl)nc32)[C@H](O)[C@@H]1O [Compound 20A-iv, 2-chloroadenosine-5′-N-ethylamine] | did not show appreciable inhibition | did not show appreciable inhibition | did not show appreciable inhibition
3 | CSC[C@H]1O[C@@H](n2cnc3c(N)nc(NCCNC(=O)OC(C)(C)C)nc32)[C@H](O)[C@@H]1O [Compound 16A, tert-butyl (2-((6-amino-9-((2R,3R,4S,5S)-3,4-dihydroxy-5-((methylthio)methyl)tetrahydrofuran-2-yl)-9H-purin-2-yl)amino)ethyl)carbamate] | not dramatically altering the activity | not dramatically altering the activity | not dramatically altering the activity
